Earlier results, collected in patent publication US20050014837A1, “Method for treating ocular hypertension and glaucoma” (priority 2001, published 2005).

Details: 0.01% solution; 5, 10 and 20 μL

initial concentration in meniscus relative to the concentration of the administered fluorescein: 36-45%
SMILES: O=C1OC2(c3ccc(O)cc3Oc3cc(O)ccc32)c2ccccc21 [fluorescein]
